Reference: patent publication US9695182B2, “Chemical compounds (derivatives) and their application for the treatment of oncological diseases” (LIMITED LIABILITY COMPANY “NATIONAL PHARMACEUTICAL …, priority 2013, dated 2017)

Tests used:
[1] = system: Karpas-299; assay: Antiproliferative activity on KARPAS-299 cells (MTS); assay type: cell-based; details: Homo sapiens, concentration at which the number of living cells is reduced 2-fold compared with absence of compound
Method: Furthermore, antiproliferative activity of the compounds of this invention can be studied on cell lines KARPAS-299 of anaplastic large cell lymphoma according to the following procedure. KARPAS-299 cells cultured in RPMI 1640 growth medium, are transferred in duplicate to 96-well culture plate (10,000 cells per well) and a solution of the analytes in a growth medium is added to them at various concentrations (final volume in each well—100 μl). The solids were dissolved in DMSO and then the solution was diluted with DMSO to the desired concentration, mixed with an equal volume of growth medium and transferred to wells with the cells. The final concentration of compounds ranged from 0.5 nM to 10 μM. DMSO was used as a control (in the same amount as that of adding solutions of substances). After the cells incubation with the compounds for 72 hours, the number of viable cells was determined. For this purpose, old medium was removed, 100 μl of fresh medium and 40 μl of MTS solution, containing 5 mg/ml PBS were added to each well. The plate was incubated for 2 hours at 37° C., then 100 μl of DMSO was added to each well and mixed for 1 minute. Then, the optical density was determined at 490 nm and percentage of inhibition of proliferation was calculated in comparison with the control (containing no analytes).

[2] = in vivo; cited from earlier work
[3] = system: NCI-H3122 cells; assay: Efficacy in animal model of non-small cell lung cancer (NCI-H3122 tumors); assay type: in vivo, male athymic mice; details: 30 mg/kg daily by gavage, 20 days; ratio of average tumor volume treatment/control
Method: The male athymic mice were used for the studies. NCI-H3122 cells in an amount of 1×10^7 were administered in the form of 0.2 ml Matrigel solution (BD Pharmingen) in the left leg of the mouse under ketamine-xylazine anesthesia. One week after cells injection mice were divided into the treatment and control groups and randomized by tumor size. Tumor volume was calculated according to the formula V=0.5×W^2×L. The control animals received daily 0.3 ml of 0.5% of methylcellulose solution, animals of the treatment group −0.3 ml of 0.5% of methylcellulose suspension containing the drug in a test dose. The solutions were administered by gavage. The treatment continued for 20 days. The ratio of the average volume for the treatment/control groups (% T/C) was calculated after treatment to determine the effectiveness of inhibition of tumor growth. The analysis of the statistical significance using Dunnett's test was performed for the data collection. Effectiveness of the test compounds in a dose of 30 mg/kg is introduced below.

[4] = system: Karpas-299 cells; assay: Efficacy in animal model of anaplastic large cell lymphoma (Karpas-299 tumors); assay type: in vivo, SCID-mice; details: 30 mg/kg daily by gavage, 23 days; ratio of average tumor volume treatment/control
Method: SCID-mice with tumors that have developed as a result of the introduction of Karpas-299 cells were used for the studies. When tumor size reached 220 mm^3 animals were divided into the treatment and control groups and were randomized by tumor size. The control animals received daily 0.3 ml of 0.5% of methylcellulose solution, animals of the treatment group—0.3 ml of 0.5% of methylcellulose suspension containing the drug in a test dose. The solutions were administered by gavage. The treatment continued for 23 days. The ratio of the average volume for the treatment/control groups (% T/C) was calculated after treatment to determine the effectiveness of inhibition of tumor growth. The analysis of the statistical significance using Dunnett's test was performed for the data collection. Effectiveness of the test compounds in a dose of 30 mg/kg is introduced below.

| Structure (SMILES) | IC50 [1] [nM] | other results |
| --- | --- | --- |
| Fc1ccc(Cl)c(CN2CCNc3nnc(-c4nnc(C(F)(F)F)[nH]4)cc32)c1Cl | < 1000 |  |
| CN1CCC(c2nnc(-c3cc4c(nn3)NCCN4Cc3c(Cl)ccc(F)c3Cl)o2)CC1 | < 100 |  |
| CC(C)c1noc(-c2cc3c(nn2)NCCN3Cc2c(Cl)ccc(F)c2Cl)n1 | < 1000 |  |
| Fc1ccc(Cl)c(CN2CCNc3nnc(-c4ccc(N5CCOCC5)cc4)cc32)c1Cl | < 100 |  |
| C[C@H](c1c(Cl)ccc(F)c1Cl)N1CCNc2nnc(-c3ccc(N4CCCC4)nc3)cc21 | < 100 |  |
| C[C@@H](Oc1cc(-c2cnn(C3CCNCC3)c2)cnc1N)c1c(Cl)ccc(F)c1Cl [Crizotinib] |  | penetration through the blood-brain barrier [2]: does not penetrate through the blood-brain barrier |
| Clc1ccc(Cl)c(CN2CCNc3nnc(-c4nnc(C5CCNCC5)[nH]4)cc32)c1 [drawing 236] |  | % T/C [3]: <40% |
| CC(c1c(Cl)ccc(F)c1Cl)N1CCNc2nnc(C(=O)Nc3ccc(C(=O)N4CCCC4)cc3)cc21 (stereo not shown) [drawing 237] |  | % T/C [3]: <40% |
| CN1CCN(C(=O)c2ccc(NC(=O)c3cc4c(nn3)NCCN4Cc3cc(Cl)ccc3Cl)cc2)CC1 [drawing 238] |  | % T/C [3]: <40% |
| O=C(Nc1ccc(N2CCOCC2)cc1)c1cc2c(nn1)NCCN2Cc1cc(Cl)ccc1Cl [drawing 239] |  | % T/C [3]: <40% |
| Fc1ccc(Cl)c(CN2CCNc3nnc(-c4nnc(C5CCNCC5)[nH]4)cc32)c1Cl [drawing 240] |  | % T/C [3]: <40% |
| Clc1ccc(Cl)c(CN2CCNc3nnc(-c4nnc(C5CCNCC5)o4)cc32)c1 [drawing 241] |  | % T/C [3]: <40% |
| Clc1ccc(Cl)c(CN2CCNc3nnc(-c4nnc(C5CCNCC5)[nH]4)cc32)c1 [drawing 242] |  | % T/C [4]: <40% |
| CC(c1c(Cl)ccc(F)c1Cl)N1CCNc2nnc(C(=O)Nc3ccc(C(=O)N4CCCC4)cc3)cc21 (stereo not shown) [drawing 243] |  | % T/C [4]: <40% |
| CN1CCN(C(=O)c2ccc(NC(=O)c3cc4c(nn3)NCCN4Cc3cc(Cl)ccc3Cl)cc2)CC1 [drawing 244] |  | % T/C [4]: <40% |
| O=C(Nc1ccc(N2CCOCC2)cc1)c1cc2c(nn1)NCCN2Cc1cc(Cl)ccc1Cl [drawing 245] |  | % T/C [4]: <40% |
| Fc1ccc(Cl)c(CN2CCNc3nnc(-c4nnc(C5CCNCC5)[nH]4)cc32)c1Cl [drawing 246] |  | % T/C [4]: <40% |
| Clc1ccc(Cl)c(CN2CCNc3nnc(-c4nnc(C5CCNCC5)o4)cc32)c1 [drawing 247] |  | % T/C [4]: <40% |

Now from value to compound, other results behind:

| IC50 [1] [nM] | Structure (SMILES) | other results |
| --- | --- | --- |
| < 1000 | O=C(NCCc1ccccc1)c1cc2c(nn1)NCCN2Cc1c(Cl)ccc(F)c1Cl |  |
| < 1000 | Clc1ccc(Cl)c(CN2CCNc3nnc(CNC4CCNCC4)cc32)c1 |  |
| < 100 | O=C(c1cc2c(nn1)NCCN2Cc1c(Cl)ccc(F)c1Cl)N1CCN(c2ccccc2)CC1 |  |
| < 100 | C[C@H](c1c(Cl)ccc(F)c1Cl)N1CCNc2nnc(Nc3cccc(N4CCOCC4)c3)cc21 |  |
| < 100 | C[C@H](c1cc(Cl)ccc1C(F)(F)F)N1CCNc2nnc(Nc3cccc(N4CCOCC4)c3)cc21 |  |
| < 100 | COc1cc(N2CCC(N(C)C)CC2)ccc1Nc1cc2c(nn1)NCCN2Cc1c(Cl)ccc(F)c1Cl |  |
| < 100 | C[C@H](c1c(Cl)ccc(F)c1Cl)N1CCNc2nnc(-c3nc(C4CCNCC4)no3)cc21 |  |
| < 100 | Clc1ccc(Cl)c(CN2CCNc3nnc(-c4nnc(C5CCNCC5)[nH]4)cc32)c1 [drawing 218] |  |
| < 100 | CC(c1c(Cl)ccc(F)c1Cl)N1CCNc2nnc(C(=O)Nc3ccc(C(=O)N4CCCC4)cc3)cc21 (stereo not shown) [drawing 228] |  |
| < 100 | CN1CCN(C(=O)c2ccc(NC(=O)c3cc4c(nn3)NCCN4Cc3cc(Cl)ccc3Cl)cc2)CC1 [drawing 231] |  |
| < 100 | O=C(Nc1ccc(N2CCOCC2)cc1)c1cc2c(nn1)NCCN2Cc1cc(Cl)ccc1Cl [drawing 232] |  |
| < 100 | Fc1ccc(Cl)c(CN2CCNc3nnc(-c4nnc(C5CCNCC5)[nH]4)cc32)c1Cl [drawing 233] |  |
| < 100 | Clc1ccc(Cl)c(CN2CCNc3nnc(-c4nnc(C5CCNCC5)o4)cc32)c1 [drawing 234] |  |
